Laboratory results taken from patent publication US20110230472A1, “RING-FUSED AZOLE DERIVATIVE HAVING PI3K-INHIBITING ACTIVITY” (Shionogi & Co., Ltd., priority 2008, published 2011).

The compounds below were run against PI-3 kinase γ (Homo sapiens, UniProt P48736) (assay: PI3Kγ inhibitory activity, PI3-kinase HTRF assay (inhibition ratio)). Details: 0.5 h; PI3Kγ, compound at 10 μM.
Format: biochemical
Experimental: The PI3Kγ inhibitory activity of a compound was evaluated using PI3-kinase HTRF™ assay (Millipore) according to the following procedure:
To each well of a testing plate, 5 μL of a compound solution containing 10% DMSO (200 μmol/L or 40 μmol/L as the concentration of the compound), 5 μL of a substrate solution (40 μmol/L phosphatidylinositol (4,5)-bisphosphate, 20 mmol/L MgCl2, 10 mmol/L DTT), and 5 μL of a enzyme solution (80 μg/mL PI-3 kinase γ, 10 mmol/L MgCl2, 5 mmol/L DTT) were added, and then allowed to stand for 10 minutes.
Then, 5 μL of a reaction solution (40 μmol/L ATP, 10 mmol/L MgCl2, 5 mmol/L DTT) was added thereto. After reacting for 30 minutes at room temperature, 5 μL of a solution containing EDTA and biotinylated phosphatidylinositol (3,4,5)-triphosphate were added to quench the reaction.
5 μL of a detection reagent containing a europium-labeled anti-GST antibody, the GST-tagged PH domain, and allophycocyanin-labeled streptavidin was added thereto. After 18 hours, HTRF (excitation wavelength: 330 nm, measured wavelengths: 620 nm and 665 nm) was measured.
HTRF ratio was defined as the value obtained by dividing the amount of fluorescence obtained at the measured wavelength 665 nm by the amount of fluorescence obtained at 620 nm. The HTRF ratio in the absence of a compound was defined as 100% activity and the HTRF ratio in the absence of PI-3 kinase γ was defined as 0% activity to calculate an inhibition ratio which was defined as the PI3Kγ inhibitory activity of a compound at 50 μmol/L or 10 μmol/L.

PI-3 kinase γ, sequence (P48736 whole entry): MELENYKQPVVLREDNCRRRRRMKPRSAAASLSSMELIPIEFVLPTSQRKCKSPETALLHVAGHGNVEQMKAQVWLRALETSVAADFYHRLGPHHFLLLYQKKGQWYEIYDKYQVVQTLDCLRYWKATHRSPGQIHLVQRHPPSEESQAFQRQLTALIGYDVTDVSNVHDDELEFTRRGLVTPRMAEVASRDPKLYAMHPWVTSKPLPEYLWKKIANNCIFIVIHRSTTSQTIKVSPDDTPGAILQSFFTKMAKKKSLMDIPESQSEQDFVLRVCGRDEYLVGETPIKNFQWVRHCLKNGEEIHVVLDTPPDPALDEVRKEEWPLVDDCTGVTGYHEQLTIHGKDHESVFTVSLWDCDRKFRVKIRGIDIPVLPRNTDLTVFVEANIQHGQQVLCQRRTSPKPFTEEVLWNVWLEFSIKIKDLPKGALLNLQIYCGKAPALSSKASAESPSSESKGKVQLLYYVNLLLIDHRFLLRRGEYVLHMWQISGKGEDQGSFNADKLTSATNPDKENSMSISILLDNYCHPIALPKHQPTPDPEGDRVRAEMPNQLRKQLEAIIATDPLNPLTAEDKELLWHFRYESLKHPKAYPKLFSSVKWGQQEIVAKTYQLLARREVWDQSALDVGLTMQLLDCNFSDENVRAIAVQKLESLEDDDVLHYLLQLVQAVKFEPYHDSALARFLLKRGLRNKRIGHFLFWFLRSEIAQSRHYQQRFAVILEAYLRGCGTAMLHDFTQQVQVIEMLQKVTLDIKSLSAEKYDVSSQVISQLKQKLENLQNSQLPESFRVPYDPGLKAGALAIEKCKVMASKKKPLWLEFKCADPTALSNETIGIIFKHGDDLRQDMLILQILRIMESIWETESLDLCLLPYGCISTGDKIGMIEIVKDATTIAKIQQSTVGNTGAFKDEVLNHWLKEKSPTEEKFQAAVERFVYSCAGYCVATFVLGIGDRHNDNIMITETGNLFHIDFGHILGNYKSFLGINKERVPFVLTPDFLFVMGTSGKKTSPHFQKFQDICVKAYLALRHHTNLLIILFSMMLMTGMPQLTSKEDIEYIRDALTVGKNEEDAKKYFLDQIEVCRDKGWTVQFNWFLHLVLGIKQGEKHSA

inhibition at 10 µM [%]	Structure (SMILES)
88	COc1cccc(CC(=O)Nc2nc3c(s2)CN(c2cc(OC)nc(OC)n2)CC3)c1 [Compound I-251]
88	COc1cc(N2CCc3nc(NC(=O)NCC(=O)OC(C)(C)C)sc3C2)nc(OC)n1 [Compound I-252]

Same assay, conditions: 0.5 h; PI3Kγ, compound at 50 μM

inhibition at 50 µM [%]	Structure (SMILES)
≥ 95	CNC(=O)Nc1nc2c(s1)CN(c1cc(Oc3ccccc3)nc(OC(C)(C)C)n1)CC2 [Compound I-150]
80	CNC(=O)Nc1nc2c(s1)CN(c1cc(Oc3ccccc3)nc(O)n1)CC2 [Compound I-151]
≥ 95	CNC(=O)Nc1cc2n(n1)CCN2c1cccc(CC(=O)OC(C)(C)C)c1 [Compound I-152]
74	CNC(=O)Nc1cc2n(n1)CCN2c1cccc(CC(=O)O)c1 [Compound I-153]
≥ 95	CNC(=O)Nc1cc2n(n1)CCN2c1cc(C(=O)OC)cc(-c2ccccc2)c1 [Compound I-161]
≥ 95	CNC(=O)Nc1cc2n(n1)CCN2c1cc(Nc2ccccc2)cc(C(=O)OC)c1 [Compound I-162]
≥ 95	CNC(=O)Nc1cc2n(n1)CCN2c1cc(C(=O)O)cc(-c2ccccc2)c1 [Compound I-163]
≥ 95	CNC(=O)Nc1cc2n(n1)CCN2c1cccc(-c2cnc(C)o2)c1 [Compound I-164]
≥ 95	CNC(=O)Nc1cc2n(n1)CCN2c1cccc(C(C)=O)c1 [Compound I-165]
≥ 95	CNC(=O)Nc1cc2n(n1)CCN2c1cc(Nc2ccccc2)cc(C(=O)O)c1 [Compound I-166]
92	CNC(=O)Nc1cc2n(n1)CCN2c1cc(Br)cc(C(=O)OC(C)(C)C)c1 [Compound I-167]
≥ 95	CNC(=O)Nc1cc2n(n1)CCN2c1ccc(F)c(OC)c1 [Compound I-168]
≥ 95	CNC(=O)Nc1cc2n(n1)CCN2c1ccc(C(=O)N(C)C)cc1 [Compound I-169]
≥ 95	CNC(=O)Nc1nc2c(s1)CN(c1cc(C(=O)NCCO)nc(Cl)n1)CC2 [Compound I-170]
≥ 95	CNC(=O)Nc1cc2n(n1)CCN2c1cc(Br)cc(C(=O)N2CCOCC2)c1 [Compound I-173]
≥ 95	CNC(=O)Nc1cc2n(n1)CCN2c1cc(Br)cc(C(=O)NCCC(=O)OC(C)(C)C)c1 [Compound I-174]
94	CNC(=O)Nc1cc2n(n1)CCN2c1cc(Br)cc(C(=O)Nc2cccc(C(=O)OC(C)(C)C)c2)c1 [Compound I-175]
≥ 95	CNC(=O)Nc1cc2n(n1)CCN2c1ccc2ccccc2c1 [Compound I-176]
≥ 95	CNC(=O)Nc1cc2n(n1)CCN2c1cc(Br)cc(C(N)=O)c1 [Compound I-178]
≥ 95	CNC(=O)Nc1cc2n(n1)CCN2c1cc(Br)cc(C(=O)NC)c1 [Compound I-179]
≥ 95	CNC(=O)Nc1cc2n(n1)CCN2c1cc(Br)cc(C(=O)NC(C)(C)C)c1 [Compound I-180]
79	CNC(=O)Nc1cc2n(n1)CCN2c1cc(Br)cc(C(=O)N2CCN(C(=O)OC(C)(C)C)CC2)c1 [Compound I-182]
≥ 95	CNC(=O)Nc1cc2n(n1)CCN2c1cc(Br)cc(C(=O)NCCOC)c1 [Compound I-183]

inhibition at 50 µM [%]	Structure (SMILES)
≥ 95	CNC(=O)Nc1cc2n(n1)CCN2c1ccc(F)c(C(=O)OC(C)(C)C)c1 [Compound I-184]
89	CNC(=O)Nc1cc2n(n1)CCN2c1cc(Br)cc(C(=O)NCCC(=O)O)c1 [Compound I-186]
91	CNC(=O)Nc1cc2n(n1)CCN2c1cccc(-c2csc(NC(=O)OC(C)(C)C)n2)c1 [Compound I-188]
≥ 95	CNC(=O)Nc1cc2n(n1)CCN2c1ccc(F)c(C(=O)O)c1 [Compound I-189]
≥ 95	CNC(=O)Nc1cc2n(n1)CCN2c1cccc(S(C)(=O)=O)c1 [Compound I-191]
≥ 95	CNC(=O)Nc1cc2n(n1)CCN2c1cccc(-c2csc(N)n2)c1 [Compound I-192]
≥ 95	CNC(=O)Nc1cc2n(n1)CCN2c1ccc2c(c1)CCC2=O [Compound I-193]
95	CNC(=O)Nc1cc2n(n1)CCN2c1ccc2c(c1)CCNC2=O [Compound I-194]
93	CNC(=O)Nc1cc2n(n1)CCN2c1cc(Br)cc(C(=O)N(C)C)c1 [Compound I-195]
79	CCOC(=O)c1sc(N2CCn3nc(NC(=O)NC)cc32)nc1C [Compound I-196]
89	CNC(=O)Nc1cc2n(n1)CCN2c1cc(C(=O)N2CCOCC2)cc(-c2cccnc2)c1 [Compound I-199]
≥ 95	CNC(=O)Nc1cc2n(n1)CCN2c1nc(C)c(C(=O)O)s1 [Compound I-201]
88	COc1cc(N2CCc3nc(NC(=O)c4cnco4)sc3C2)nc(OC)n1 [Compound I-204]
≥ 95	COc1cc(N2CCc3nc(NC(=O)NCCC(=O)N4CCOCC4)sc3C2)nc(OC)n1 [Compound I-207]
≥ 95	CNC(=O)Nc1cc2n(n1)CCN2c1cc(C(=O)N2CCOCC2)cc(-c2cnc(N)nc2)c1 [Compound I-209]
≥ 95	CNC(=O)Nc1cc2n(n1)CCN2c1cc(C(=O)N2CCOCC2)cc(-c2ccc(N)cc2)c1 [Compound I-210]
89	CCOC(=O)c1ccc(N2CCn3nc(NC(=O)NC)cc32)s1 [Compound I-211]
80	CC(C)(C)OC(=O)CCNC(=O)Nc1cc2n(n1)CCN2c1cccc(Cl)c1 [Compound I-212]
≥ 95	O=C(O)CCNC(=O)Nc1cc2n(n1)CCN2c1cccc(Cl)c1 [Compound I-215]
≥ 95	CNC(=O)Nc1cc2n(n1)CCN2c1ccc2c(c1)C(=O)CC2 [Compound I-216]
≥ 95	O=C(NCCC(=O)N1CCOCC1)Nc1cc2n(n1)CCN2c1cccc(Cl)c1 [Compound I-218]
≥ 95	O=C(Nc1cc2n(n1)CCN2c1cccc(Cl)c1)c1ccccc1 [Compound I-219]
≥ 95	CNC(=O)Nc1cc2n(n1)CCN2c1cc(C(=O)N2CCOCC2)cc(-c2cccc(O)c2)c1 [Compound I-220]

inhibition at 50 µM [%]	Structure (SMILES)
≥ 95	O=C(Nc1cc2n(n1)CCN2c1cccc(Cl)c1)c1cnco1 [Compound I-221]
91	CNC(=O)Nc1cc2n(n1)CCN2c1cc(Oc2ccccc2)cc(C(=O)N2CCOCC2)c1 [Compound I-223]
93	CNC(=O)Nc1cc2n(n1)CCN2c1cc(/C=C/c2ccccc2)cc(C(=O)N2CCOCC2)c1 [Compound I-225]
≥ 95	CNC(=O)Nc1cc2n(n1)CCN2c1ccc(C(=O)N(C)C)s1 [Compound I-226]
≥ 95	CNC(=O)Nc1cc2n(n1)CCN2c1ccc2c(c1)NC(=O)CC2 [Compound I-227]
85	CNC(=O)Nc1cc2n(n1)CCN2c1cc(C#Cc2ccccc2)cc(C(=O)N2CCOCC2)c1 [Compound I-228]
≥ 95	CNC(=O)Nc1cc2n(n1)CCN2c1cc(C(=O)N2CCOCC2)cc(C2=CCCCC2)c1 [Compound I-231]
76	CNC(=O)Nc1nc2c(s1)CN(c1cc(Oc3ccccc3)nc(OCCCOCc3ccccc3)n1)CC2 [Compound I-232]
84	CNC(=O)Nc1cc2n(n1)CCN2c1cc(C#CCOC)cc(C(=O)N2CCOCC2)c1 [Compound I-233]
89	O=C(O)CC(=O)Nc1cc2n(n1)CCN2c1cccc(Cl)c1 [Compound I-235]
88	CC(=O)N1CCC(C(=O)Nc2cc3n(n2)CCN3c2cccc(Cl)c2)CC1 [Compound I-236]
84	O=C(Nc1cc2n(n1)CCN2c1cccc(Cl)c1)C1CCCC1 [Compound I-237]
92	COc1cccc(C(=O)Nc2cc3n(n2)CCN3c2cccc(Cl)c2)c1 [Compound I-239]
91	O=C(Nc1cc2n(n1)CCN2c1cccc(Cl)c1)c1cccc(O)c1 [Compound I-240]
84	O=C(Nc1cc2n(n1)CCN2c1cccc(Cl)c1)c1ccc2nccn2c1 [Compound I-241]
≥ 95	O=C(Cn1ccnc1)Nc1cc2n(n1)CCN2c1cccc(Cl)c1 [Compound I-242]
81	CS(=O)(=O)Nc1ccc(CC(=O)Nc2cc3n(n2)CCN3c2cccc(Cl)c2)cc1 [Compound I-243]
87	CC(=O)NCCC(=O)Nc1cc2n(n1)CCN2c1cccc(Cl)c1 [Compound I-244]
76	O=C(Nc1cc2n(n1)CCN2c1cccc(Cl)c1)c1nccs1 [Compound I-245]
90	O=C(Nc1cc2n(n1)CCN2c1cccc(Cl)c1)c1ccn[nH]1 [Compound I-246]
95	O=C(O)c1cccc(C(=O)Nc2cc3n(n2)CCN3c2cccc(Cl)c2)c1 [Compound I-247]
≥ 95	NC(=O)CCC(=O)Nc1cc2n(n1)CCN2c1cccc(Cl)c1 [Compound I-249]
≥ 95	CNC(=O)Nc1cc2n(n1)CCN2c1cc(C#CC2CCN(C(=O)OC(C)(C)C)CC2)cc(C(=O)N2CCOCC2)c1 [Compound I-250]
